Assays:
[1] = Rat PK profile (bioavailability, clearance, half-life); format: in vivo; details: male, Sprague Dawley, plasma, i.v. dose 1 mg/kg
Procedure: Male Sprague Dawley Rats 300-350 g (Charles River, UK) were group housed, n=3, under a 12 h light/dark cycle with food and water available ad libitum. At 17:00 on the day prior to dosing all food was removed. On the day of dosing animals were weighed, tail marked and dosed via oral gavage with compound at 3 mg/kg in a volume of 5 mL/kg. Animals were culled at 30 min, 1 h and 4 h post dose via intra-peritoneal administration of pentobarbital. Post mortem blood was withdrawn via cardiac puncture, and briefly stored in K2 EDTA blood tubes on ice before being spun at 14,000 g for 4 min at 4° C. Plasma was withdrawn into a 96 well plate, placed on dry ice and stored at −80° C. Brains were quickly dissected and placed on dry ice before storage at −80° C. Bioanalysis of plasma and brain samples is performed as detailed below. Methods were prepared with guidance from industry standard documents.^i,ii
A 10 mM DMSO stock is used to prepare spiking solutions of test compound in the range of 10-100,000 ng/mL in diluent (MeCN:water, 1;1). Calibration lines are prepared in control male Sprague-Dawley Rat plasma at known concentrations in the range of 1-10000 ng/mL by spiking 2.5 μL of calibration spiking solution into 25 μL control plasma. Experimental samples are thawed to RT and 25 μL aliquots are extracted alongside the calibration lines using protein precipitation (agitation for at least 5 min at RT with 400 μL of MeCN containing 25 ng/mL tolbutamide as an internal standard). Protein precipitates are separated from the extracted test compound by centrifugation at 4000 rpm for 5 min, 4° C. The resulting supernatants are diluted in a ratio of 1:2 with a relevant diluent (e.g. 0.1% formic acid in water or 1:1 MeOH:water). Samples are analysed by UPLC-MS/MS on either an API6500 QTrap or Waters 30 TQS mass spectrometer using previously optimised analytical MRM (multiple reaction monitoring) methods, specific to the test compound. The concentration of test compound in isolated samples is determined following analysis of the samples against the two replicates of the calibration line, injected before and after the sample set with an appropriate regression and weighting used. Only samples within 20% of the expected test concentration are included in the calibration line and any samples that fall outside of the limits of the calibration line will be deemed to be less than or above the limit of quantification (LLoQ/ALoQ).
Pharmacokinetic parameters such as bioavailability (% F), clearance (CL), half-life (T½) and volume of distribution are calculated by non-compartmental analysis using Phoenix Winnonlin 64 software (build 8.0). The bioavailability was calculated from p.o. dosed rats, whereas the clearance and half-life were calculated from i.v. dosed rats. Briefly, in vivo plasma concentrations, timepoints and dose values are imported into the software in a compatible format. Plasma concentration for each animal is plotted against time, and the elimination phase identified and selected. The area under the curve for each plot is calculated using a linear trapezoidal linear interpolation from which pharmacokinetic parameters can subsequently be determined. […] Compounds of the invention have much improved clearance (CL) and half-life (T½) compared to the reference examples.

[2] = Brain to plasma (B:P) ratio in rat; format: in vivo, Sprague Dawley Rats; details: male, Sprague Dawley, po, p.o. 3.0 mg/kg, 30% HPBC in water, timepoints averaged 0.5-4 h
Procedure: Male Sprague Dawley Rats 300-350 g (Charles River, UK) were group housed, n=3, under a 12 h light/dark cycle with food and water available ad libitum. At 17:00 on the day prior to dosing all food was removed. On the day of dosing animals were weighed, tail marked and dosed via oral gavage with compound at 3 mg/kg in a volume of 5 mL/kg. Animals were culled at 30 min, 1 h and 4 h post dose via intra-peritoneal administration of pentobarbital. Post mortem blood was withdrawn via cardiac puncture, and briefly stored in K2 EDTA blood tubes on ice before being spun at 14,000 g for 4 min at 4° C. Plasma was withdrawn into a 96 well plate, placed on dry ice and stored at −80° C. Brains were quickly dissected and placed on dry ice before storage at −80° C. Bioanalysis of plasma and brain samples is performed as detailed below. Methods were prepared with guidance from industry standard documents.^i,ii […] Calibration lines are prepared in control male Sprague-Dawley Rat plasma at known concentrations in the range of 1-10000 ng/mL by spiking 2.5 μL of calibration spiking solution into 25 μL control plasma. Experimental samples are thawed to RT and 25 μL aliquots are extracted alongside the calibration lines using protein precipitation (agitation for at least 5 min at RT with 400 μL of MeCN containing 25 ng/mL tolbutamide as an internal standard). Protein precipitates are separated from the extracted test compound by centrifugation at 4000 rpm for 5 min, 4° C. […] Samples are analysed by UPLC-MS/MS on either an API6500 QTrap or Waters 30 TQS mass spectrometer using previously optimised analytical MRM (multiple reaction monitoring) methods, specific to the test compound. The concentration of test compound in isolated samples is determined following analysis of the samples against the two replicates of the calibration line, injected before and after the sample set with an appropriate regression and weighting used. Only samples within 20% of the expected test concentration are included in the calibration line and any samples that fall outside of the limits of the calibration line will be deemed to be less than or above the limit of quantification (LLoQ/ALoQ). […] Calibration lines are prepared in control male Sprague-Dawley Rat brain homogenate at known concentrations in the range of 3-30000 ng/g by spiking 2.5 μL of calibration spiking solution into 25 μL control homogenate. To prepare control and experimental brain homogenates, brains are thawed, weighed and a volume of diluent added (water) in the ratio of 2 mL per gram of brain. Homogenisation of brains is performed by bead-beater homogenisation using Precellys Evolution and CK14 7 mL small ceramic bead homogenisation tubes. Aliquots of 25 μL experimental sample are extracted alongside the calibration lines using protein precipitation (agitation for at least 5 min at RT with 400 μL of MeCN containing 25 ng/mL tolbutamide as an internal standard). Protein precipitates are separated from the extracted test compound by centrifugation at 4000 rpm for 5 min, 4° C. […] Samples are analysed by UPLC-MS/MS on either an API6500 QTrap or Waters TQS mass spectrometer using previously optimised analytical MRM (multiple reaction monitoring) methods, specific to the test compound. The concentration of test compound in isolated samples is determined following analysis of the samples against the two replicates of the calibration line, injected before and after the sample set with an appropriate regression and weighting used. Only samples within 20% of the expected test concentration are included in the calibration line and any samples that fall outside of the limits of the calibration line will be deemed to be less than or above the limit of quantification (LLoQ/ALoQ). Total brain to plasma (B:P) ratios were calculated by dividing the concentration in the brain by the concentration in plasma for each timepoint. The mean brain to plasma ratio is calculated by averaging these brain to plasma ratios across certain timepoints. […]

clearance ([1]; iv): 1.9 mL/min/kg | half-life ([1]; iv, read-out: T½ (converted)): 20 h | bioavailability ([1]; po, p.o. dose 3 mg/kg): 97% | Kp [2]: 1.91
Compound: O=C(Nc1ccc(OC(F)(F)Cl)cc1)c1ccc(=O)n(-c2ccccc2)c1 [Example 56, N-[4-[Chloro(difluoro)methoxy]phenyl]-6-oxo-1-phenyl-pyridine-3-carboxamide]

Reference: patent publication US20230002346A1, “NEW COMPOUNDS AND METHODS” (BenevolentAl Bio Limited, priority 2019, published 2023)
